In patent publication US10676462B2, “Quinoline derivative” (ONO PHARMACEUTICAL CO., LTD., priority 2013, dated 2020):

What was measured:
Axl enzyme = biological target: T1, Axl enzyme (Homo sapiens, UniProt P30530); test: Measurement of an Axl inhibitory activity (LanthaScreen TR-FRET, in vitro test); assay type: biochemical
T1 construct: a solution containing 400 ng/mL Axl enzyme was prepared
T1 sequence (P30530 26-894): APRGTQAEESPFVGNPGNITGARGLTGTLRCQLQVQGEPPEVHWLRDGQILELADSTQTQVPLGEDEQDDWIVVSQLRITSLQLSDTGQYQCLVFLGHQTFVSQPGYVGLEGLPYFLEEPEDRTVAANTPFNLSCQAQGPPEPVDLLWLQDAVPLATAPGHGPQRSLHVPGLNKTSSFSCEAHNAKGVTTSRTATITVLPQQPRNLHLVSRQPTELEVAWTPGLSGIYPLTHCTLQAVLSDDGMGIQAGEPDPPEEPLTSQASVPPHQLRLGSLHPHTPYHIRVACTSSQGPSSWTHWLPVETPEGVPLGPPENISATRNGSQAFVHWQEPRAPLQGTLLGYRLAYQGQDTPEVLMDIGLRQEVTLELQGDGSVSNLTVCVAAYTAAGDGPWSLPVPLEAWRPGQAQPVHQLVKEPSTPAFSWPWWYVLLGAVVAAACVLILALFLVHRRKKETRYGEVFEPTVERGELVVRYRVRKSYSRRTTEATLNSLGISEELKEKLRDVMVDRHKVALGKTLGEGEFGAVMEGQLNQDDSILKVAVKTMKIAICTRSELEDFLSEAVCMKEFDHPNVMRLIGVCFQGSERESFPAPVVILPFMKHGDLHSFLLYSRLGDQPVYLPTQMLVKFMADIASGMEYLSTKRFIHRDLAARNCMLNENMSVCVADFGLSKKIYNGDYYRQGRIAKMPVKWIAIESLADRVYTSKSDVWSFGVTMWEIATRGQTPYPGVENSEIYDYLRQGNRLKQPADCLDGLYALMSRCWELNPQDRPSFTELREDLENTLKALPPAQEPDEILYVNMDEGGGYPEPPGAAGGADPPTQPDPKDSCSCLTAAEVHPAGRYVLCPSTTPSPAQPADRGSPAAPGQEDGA
Description: Biological Example 1: Measurement of an Axl Inhibitory Activity (In Vitro Test)
An Axl enzyme inhibitory activity was measured by using LanthaScreen (registered trademark) system (Invitrogen) based on the attached instruction. The reagents used are shown below.
Reaction buffer solution: a solution containing 50 mmol/L HEPES (pH7.5), 0.01% Brij35, 10 mmol/L MgCl2 and 1 mmol/L EGTA was prepared by using purified water.
Test substance solution: a solution containing a test compound of 5-fold concentration with respect to the final concentration was prepared by 20-fold diluting a DMSO solution of test compound of each concentration with the reaction buffer solution.
Enzyme solution: a solution containing 400 ng/mL Axl enzyme was prepared by using the reaction buffer solution.
Substrate solution: a solution containing 45 μmmol/L ATP and 500 nmmol/L Fluorescein-Poly GT (Invitrogen) was prepared by using the reaction buffer solution.
Detection solution: a solution containing 20 mM EDTA and 4 nM PY20 (Invitrogen) was prepared by using Dilution B (Invitrogen).
A 10 mmol/L DMSO solution of the test compound was dispensed into a 96-well plate (Nunc), and, furthermore, a 3-fold dilution series was prepared using DMSO. In each well of the 96-well plate for measurement, 5 μL each of the reaction buffer solution containing DMSO was added to a Blank group and a medium group, and 5 μL of the test substance solution was added to the test substance group, respectively. Next, 10 μL/well of the reaction buffer solution was added to the Blank group, and 10 μL/well each of the enzyme solution was added to the medium group and the test compound group, followed by stirring at room temperature for 10 min. After the completion of stirring, 10 μL each of the substrate solution was added into each well, followed by stirring at room temperature with light shielded for one hour. After the completion of reaction, 25 μL each of the detection solution was added to each well, and stood still at room temperature with light shielded for 30 min. After standing sill, fluorescence intensity at 520 nm and 495 nm at the time of irradiation with exciting light of 340 nm was measured by using Analyst GT (Molecular Devices). The phosphorylation of the artificial substrate was quantified by Time-resolved Fluorescence Resonance Energy Transfer (TR-FRET). TR-FRET ratio was calculated by dividing 520 nm fluorescence signal by 495 nm fluorescence signal for each well, and the inhibition rate (%) in the test compound group was calculated based on the following mathematical formula. Inhibition rate (%)=[1−(TR-FRET ratio of test compound group−A)/(B−A)×100 [Math. 1] A: average value of TR-FRET ratios of Blank group B: average value of TR-FRET ratios of medium group
Values of 50% inhibition rate (IC50 values) of the test compound were calculated from the inhibition curve based on the inhibition rate of the test compounds in each concentration.

Ba/F3 Axl = biological target: T2, Ba/F3 Axl (Homo sapiens, UniProt P30530); test: Proliferation suppression rate using mouse pro-B cell line (Ba/F3 Axl) stably expressing Axl; assay type: cell-based; details: Ba/F3 Axl cells, 48 hours, CellTiter-Glo; read-out: IC50 value, proliferation suppression of Ba/F3 Axl
T2 sequence (P30530 1-894): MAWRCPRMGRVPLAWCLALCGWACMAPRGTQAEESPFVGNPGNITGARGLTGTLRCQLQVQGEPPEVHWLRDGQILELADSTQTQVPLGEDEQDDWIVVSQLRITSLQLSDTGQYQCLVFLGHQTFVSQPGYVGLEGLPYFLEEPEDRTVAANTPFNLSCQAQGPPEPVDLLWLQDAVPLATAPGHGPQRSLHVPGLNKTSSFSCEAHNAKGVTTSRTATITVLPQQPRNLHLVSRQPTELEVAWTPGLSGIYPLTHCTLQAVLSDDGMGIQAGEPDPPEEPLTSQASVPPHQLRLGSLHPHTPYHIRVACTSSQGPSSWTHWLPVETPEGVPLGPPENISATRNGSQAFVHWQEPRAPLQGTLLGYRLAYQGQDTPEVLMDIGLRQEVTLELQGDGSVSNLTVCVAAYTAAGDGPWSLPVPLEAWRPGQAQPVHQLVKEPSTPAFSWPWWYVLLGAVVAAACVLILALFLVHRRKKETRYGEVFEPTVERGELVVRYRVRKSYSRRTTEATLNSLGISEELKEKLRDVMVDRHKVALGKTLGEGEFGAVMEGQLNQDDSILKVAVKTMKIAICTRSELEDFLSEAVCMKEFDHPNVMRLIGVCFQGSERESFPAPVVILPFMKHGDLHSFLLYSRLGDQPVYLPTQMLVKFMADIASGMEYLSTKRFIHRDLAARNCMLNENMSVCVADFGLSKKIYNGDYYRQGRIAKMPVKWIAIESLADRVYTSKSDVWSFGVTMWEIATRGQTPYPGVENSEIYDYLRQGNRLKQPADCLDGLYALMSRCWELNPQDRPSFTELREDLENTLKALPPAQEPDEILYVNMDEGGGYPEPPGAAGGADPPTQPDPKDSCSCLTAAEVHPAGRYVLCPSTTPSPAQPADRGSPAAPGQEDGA
Description: Biological Example 2: Measurement of Proliferation Suppression Rate by Using Mouse Pro-B Cell Line (Ba/F3 Axl) Stably Expressing Axl
A 0.1 mmol/L DMSO solution of the test compound was dispensed into a 96-well plate, and a 3-fold dilution series was prepared using DMSO. DMSO solutions of test compounds, having various concentrations, were further 500-fold diluted with a RPMI1640 medium (containing 10% HI-FBS, 1% penicillin) and a diluted solution of the test compound having […] with respect to the final concentration was prepared. In each well of the 96-well plate (BD Biosciences) for measurement, 50 μL of a RPMI medium was added to the Blank group, 50 μL of a RPMI medium containing 0.2% DMSO was added to the medium group, and 50 μL of the diluted solution of the test compound was added to the test compound group, respectively. Ba/F3 Axl was diluted with a medium to have a density of 2×10^5 cells/mL to prepare a cell suspension. In each well of the 96-well plate for measurement, 50 μL each of the RPMI medium was added to the Blank group, and 50 μL each of the cell suspension to the medium group and the test compound group, respectively, and the groups were stood still at 37° C. at 5% CO2 for 48 hours. After standing still, Relative Light Unit (RLU) was measured by using CELLTITER-GLO (registered trademark) LUMINESCENT CELL VIABILITY ASSAY (Promega). The measurement was carried out according to the attached instruction. To each well, 100 μL each of light-emitting solution was added. The plate was stirred at room temperature for 3 min and then stool still at room temperature with light shielded for 10 min, and RLU was measured by using Microplate Reader (SpectraMax M5e, Molecular Devices). The average values of RLU of the Blank group and the medium group were respectively calculated, and the proliferation suppression rate of the test compound group was calculated. Proliferation suppression rate (%)={1−(RLU of test compound group−A)/(B−A)}×100 [Math. 2] A: average value of RLU of Blank group B: average value of RLU of medium group
A value of 50% inhibition rate (IC50 value) of the test compound was calculated from the inhibition curve based on the inhibition rate in each concentration of the test compound.

KDR = KDR (Homo sapiens, UniProt P35968); test: Evaluation of kinase selectivity (in vitro test), KDR; assay type: biochemical; details: Axl selective inhibitory activity with respect to KDR, ratio of IC50 values
KDR, sequence (P35968 20-1356): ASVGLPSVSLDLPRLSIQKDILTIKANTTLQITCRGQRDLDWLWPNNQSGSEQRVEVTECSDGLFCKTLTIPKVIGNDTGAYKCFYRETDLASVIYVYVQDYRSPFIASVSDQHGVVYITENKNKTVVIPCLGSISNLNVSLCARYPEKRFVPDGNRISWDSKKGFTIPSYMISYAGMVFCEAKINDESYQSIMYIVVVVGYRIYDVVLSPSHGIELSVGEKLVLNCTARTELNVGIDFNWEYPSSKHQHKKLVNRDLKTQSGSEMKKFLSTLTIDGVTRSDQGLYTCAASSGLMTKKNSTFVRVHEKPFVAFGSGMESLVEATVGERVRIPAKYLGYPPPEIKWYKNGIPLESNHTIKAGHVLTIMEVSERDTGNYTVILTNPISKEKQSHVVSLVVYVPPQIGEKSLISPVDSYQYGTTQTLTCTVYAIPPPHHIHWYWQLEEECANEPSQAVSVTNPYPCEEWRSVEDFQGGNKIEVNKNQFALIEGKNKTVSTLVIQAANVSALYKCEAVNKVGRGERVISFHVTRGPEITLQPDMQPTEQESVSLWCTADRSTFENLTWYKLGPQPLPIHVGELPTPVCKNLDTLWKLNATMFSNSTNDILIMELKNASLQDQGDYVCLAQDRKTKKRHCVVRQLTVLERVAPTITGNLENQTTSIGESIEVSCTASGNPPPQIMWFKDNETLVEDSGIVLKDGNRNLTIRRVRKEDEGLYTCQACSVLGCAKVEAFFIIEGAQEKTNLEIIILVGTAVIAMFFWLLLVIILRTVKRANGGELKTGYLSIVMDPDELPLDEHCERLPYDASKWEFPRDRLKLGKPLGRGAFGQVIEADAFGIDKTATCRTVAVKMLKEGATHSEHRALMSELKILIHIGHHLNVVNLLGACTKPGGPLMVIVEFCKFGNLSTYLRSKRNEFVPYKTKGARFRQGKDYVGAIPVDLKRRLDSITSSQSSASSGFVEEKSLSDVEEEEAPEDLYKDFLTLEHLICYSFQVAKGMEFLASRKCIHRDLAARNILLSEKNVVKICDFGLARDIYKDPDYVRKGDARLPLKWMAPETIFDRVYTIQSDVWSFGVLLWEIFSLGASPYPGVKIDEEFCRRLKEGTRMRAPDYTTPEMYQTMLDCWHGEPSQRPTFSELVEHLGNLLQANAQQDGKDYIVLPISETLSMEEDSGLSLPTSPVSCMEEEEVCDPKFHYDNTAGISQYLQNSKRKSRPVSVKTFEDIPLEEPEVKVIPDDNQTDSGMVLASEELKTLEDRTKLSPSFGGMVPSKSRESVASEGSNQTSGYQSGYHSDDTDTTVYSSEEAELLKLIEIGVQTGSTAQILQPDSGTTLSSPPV
Description: Biological Example 3: Evaluation of Kinase Selectivity (In Vitro Test)
Similar to Biological Example 1, values of 50% inhibition rate (IC50 value) with respect to various kinases (KDR, DDR1, FLT4, and ROS) of the test compound were measured. The Axl selective inhibitory activity of the test compound with respect to kinases, for example, KDR, was calculated based on the above-mentioned ratio of the IC50 values. As the test compound, for the compound of the present invention, the compounds of Examples 5, 5(1), 17(2), and 23(2) were used, and for the comparative compounds, the compound of Example 5 (Comparative compound C) and the compound of Example 92 (Comparative compound D) described in Patent Literature 5, having the following structure, were used.

| SMILES | IC50 (Axl enzyme) [nM] | GI50 (Ba/F3 Axl) [nM] | KDR [IC50]/Axl [IC50] (KDR) |
| --- | --- | --- | --- |
| COc1cc2nccc(Oc3ccc(NC(=O)c4nn(C)c5ccccc45)cc3F)c2cc1OC [Comparative compound A, reference compound] | > 10000 | 620 |  |
| COc1cc2nccc(Oc3ccc(NC(=O)c4cc5ccccc5[nH]c4=O)cc3)c2cc1OC [Comparative compound B, reference compound] | > 10000 | > 10000 |  |
| COc1cc2c(Oc3ccc(NC(=O)c4cccc5cccnc45)cc3F)ccnc2cc1OCCCN1CCOCC1 [Comparative compound C, reference compound] |  |  | about 0.2 times |
| COc1cc2c(Oc3ccc(NC(=O)c4ccnn(-c5ccc(F)cc5)c4=O)cn3)ccnc2cc1OCCCN1CCOCC1 [Comparative compound D, reference compound] |  |  | about 28 times |
| COc1cc2nccc(Oc3ccc(NC(=O)c4cc5c(n(CC(C)(C)C)c4=O)CCCC5=O)nc3)c2cc1OC [Example 5(6), N-{5-[(6,7-dimethoxy-4-quinolinyl)oxy]-2-pyridinyl}-1-(2,2-dimethylpropyl)-2,5-dioxo-1,2,5,6,7,8-hexahydro-3-quinolinecarboxamide] | 4.3 | 7.8 |  |
